Data: patent US5705649A, “Protein staining compositions and methods” (Promega Corporation, priority 1995, dated 1998)

Columns and labels:
[1] = system: Promega Mid-Range Molecular Weight Markers; experiment: Detection of proteins during SDS-PAGE electrophoresis (dye in cathode buffer)
Text: Solutions for the formation and electrophoresis of proteins were made according to the instructions given in Experiments in Gene Fusions, Silhavy, Berman, Enquist, Cold Spring Harbor Laboratory Press, Cold Spring Harbor, N.Y. with the following changes:
a) The SDS concentration in the upper and lower gel buffer components were reduced to result in a 0.05% final SDS concentration in the gel. Thus, the composition of 4× upper gel buffer was 0.5M Tris-HCl, pH 6.8, 0.2 % (w/v) sodium dodecylsulfate (SDS) and the composition of 4× lower gel buffer was 1.5M Tris-HCl, pHS.8, 0.2 % (w/v) SDS.
b) The SDS concentration in the electrophoretic (electrode) buffer was reduced to 0.04% final concentration. Thus, 4× electrode (anode or cathode) buffer was made by dissolving 60 g Tris base, 288 g glycine, and 8 g SDS dissolved in water and then diluting with water to 5 liters. Another name sometimes used for "electrode" buffer is "running" buffer.
c) The SDS concentration in the 2× sample buffer was reduced to 1% final SDS concentration. Thus, 2× sample buffer was made by mixing 0.5 ml of betamercaptoethanol, 0.25 ml of 0.1% (w/v) bromophenol blue, 1 ml of 10 % (w/v) SDS, 3 ml of water, and 5.3 ml of 2× glycerol buffer. 2× glycerol buffer is made by mixing 12.5 ml of 4× upper gel buffer and 20 ml of glycerol and diluting the resulting solution to 60 ml with water. Another name sometimes used for "sample" buffer is "loading" buffer.
d) Electrophoresis was performed using a BIO-RAD miniprotein II electrophoresis apparatus and gels were poured such that i cm of space was present between the bottom of the loading wells and the separating gel.
In other electrophoresis experiments reported in this application, the buffers used were as described above in this example. In some cases, as in this example, where preparation of a solution of dye in 150 ml of cathode (or electrode) buffer is specified, an amount of stock solution of a dye was first added to 150 ml of cathode buffer and then 125 ml of the resulting solution was used to fill the cathode buffer chamber (which holds 125 ml) in the electrophoresis apparatus. In other cases, where addition of stock solution of dye to the cathode buffer is specified without reference to the volume of cathode buffer or with reference to such volume being "125 ml," the stock solution was added directly to 125 ml of cathode buffer already in the cathode buffer chamber.
The samples used were prepared with Promega Mid-Range Molecular Weight Markers solution (Promega Corp., Madison, Wis., USA, Catalog No. V5231) (referred to hereinafter as "Promega Mid-Range [Molecular Weight] Markers or Standards") diluted into Sample Buffer. […]

[2] = system: Promega Mid-Range Molecular Weight Markers; experiment: Enhancement of staining of proteins in SDS-PAGE gels in 5% acetic acid
Experimental: The gels described above were placed in 5% acetic acid following the termination of the electrophoretic separation. Within one to two minutes the gel developed a light green background but the protein bands dramatically darkened to a green color. […] Again, the color of the background darkened to a greater degree when greater concentrations of dye were used.
The gels above (from Example 7) were placed in 5% acetic acid following termination of the electrophoretic separation. Within 1-2 minutes, all the gels turned light green and the color of the stained bands intensified such that all proteins were visible--even in the lane containing 0.25 μg protein/band.
The gels above (Example 9) were placed in 5% acetic acid following termination of the electrophoretic separation. Within 1-2 minutes, all the gels turned light green and the color of the stained bands intensified such that all proteins were visible--even in the lanes containing 0.25 μg protein/band.

[3] = system: Promega Mid-Range Molecular Weight Markers; experiment: Recovery of proteins separated by gel electrophoresis; settings: re-run 10% SDS-PAGE, 30% methanol, 4% acetic acid, 1 hour
Experimental: An 8% SDS-PAGE gel was prepared as described above and loaded with Promega Mid-Range Molecular Weight Markers at a concentration of 4 μg of each protein per lane. The gel was run at 160 V with 200 μl of octyl Coomassie (Promega Green 1) stock solution in the cathode buffer (125 ml).
After electrophoresis, the gel segments containing the 97, 66, 55, 43, and 40 kilodalton proteins were excised from four consecutive lanes, minced, and placed in individual 1.5 ml Eppendorf tubes containing 0.5 ml of 50 mM ammonium bicarbonate pH 7.8 containing 0.02% SDS (w/v). The tubes were then incubated at 50° C. for 14 hours.
After that time, the tubes were spun for 1 minute in a microfuge to pellet the minced acrylamide and 0.47 ml of the supernate was removed to new 1.5 ml tubes. Two of the four solutions from each of the eluted protein samples were dried in a Speed-Vac, the other pair was first ultrafiltered through a 5000 dalton cut-off Milligen centrifugal concentrator by centrifugation in a microfuge for 30 minutes. These concentrated solutions were then dried in a Speed Vac.
The dried samples were resuspended in 25 μl of 1× loading buffer and heated at 95° C. for 10 minutes. These samples were then loaded in two 15-well, 0.75 mm 10% SDS-PAGE gels made as above. The gels were then run at 160 V with 200 μl of Promega Green 1 stock solution in the cathode buffer (125 ml). […]

For CCCCCCCC(=O)N(c1ccc(OCC)cc1)c1ccc(C(=C2C=CC(=[N+](CC)Cc3cccc(S(=O)(=O)[O-])c3)C=C2)c2ccc(N(CC)Cc3cccc(S(=O)(=O)O)c3)cc2)cc1 [Promega Green 1], the “lowest protein amount per band visible while the gel was running” value ([1]; 10% SDS-PAGE, dye in cathode buffer, white plastic card behind gel) was 1.0 µg, the “lowest protein amount per band visible by the end of the run (most of the bands)” value ([1]; essentially clear background) was 0.5 µg and the “visibility of protein bands after enhancement” value ([2]; 5% acetic acid, one to two minutes) was “All of the protein bands in all the lanes having sample were now visible”. The “staining after overnight incubation” value ([2]; 5% acetic acid, overnight) was “appeared to darken slightly”, the overall performance ([2]; Examples 5-10) was “most desirable properties of the compounds tested” and the “detection of recovered proteins” value [3] was “the expected protein bands could be seen in the lanes”.
